Experimental data published in US20080161340A1, “Tetrahydroquinilinones, tetrahydronaphthyridones and derivatives thereof” (priority 2006, published 2008).

Tests used:
Assay type in all cases: cell-based
rCB2 = target: T1, rCB2 (Rattus norvegicus, UniProt Q9QZN9); test: cAMP assay, rCB2 in Table 7, agonist/inverse agonist; details: intracellular cAMP; + agonist, − inverse agonist
T1 sequence (Q9QZN9 1-360): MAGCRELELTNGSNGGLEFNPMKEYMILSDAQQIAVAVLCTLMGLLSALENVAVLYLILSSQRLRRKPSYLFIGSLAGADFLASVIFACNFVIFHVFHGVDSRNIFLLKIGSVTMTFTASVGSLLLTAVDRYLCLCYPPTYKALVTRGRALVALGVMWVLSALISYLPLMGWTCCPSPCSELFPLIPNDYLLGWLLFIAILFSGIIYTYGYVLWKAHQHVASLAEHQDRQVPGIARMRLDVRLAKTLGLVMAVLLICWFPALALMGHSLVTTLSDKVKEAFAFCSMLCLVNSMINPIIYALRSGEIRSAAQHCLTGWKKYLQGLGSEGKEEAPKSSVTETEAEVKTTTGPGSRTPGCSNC
Method: (§1) Receptor mediated responses were determined by measuring changes in intracellular cAMP using LANCE cAMP detection kit (cat #AD0264, PerkinElmer, Wellesley, Mass.) based on time-resolved fluorescence resonance energy transfer (TR-FRET). Changes in cAMP were determined in cells pre-incubated with IBMX (isobutyl methylxanthine) and prestimulated with NKH-477 (a water soluble forskolin derivative, cat #1603, Tocris, Ellisville, Mo.) to increase basal cAMP levels as detailed below.
(§2) On the day of the experiment, cells were spun at low speed for 5 min at room temperature. The supernatant was removed and cells were resuspended in stimulation buffer (Hanks Buffered Salt Solution/5 mM HEPES, containing 0.5 mM IBMX (cat #17018, Sigma) and 0.02% BSA (PerkinElmer, cat #CR84-100)). Cell clumps were removed by filtering through cell strainer 40 μm (BD Falcon, Discovery Labware, Bedford, Mass.) and diluted to 2×10^5 cells/mL. Antibody supplied with the LANCE cAMP immunoassay kit was then added according to the manufacturer's instructions. An aliquot of cells was taken for un-induced controls. To the remaining cells was added NKH-477 (a water soluble forskolin derivative, Tocris cat #1603) to a final concentration of 2-8 μM. Cells were then incubated for 30 min at room temperature prior to adding to Proxiplates containing test compounds (final DMSO concentration was less than 0.5%) with a Multidrop bulk dispenser, followed by a sixty minute incubation at room temperature. The response was stopped by addition of the detection mix supplied with the LANCE kit.
(§3) The reagents were allowed to equilibrate for three hours prior to reading on an Envision multi-mode detector (PerkinElmer). TR-FRET was measured using a 330-380 nm excitation filter, a 665 nm emission filter, dichroic mirror 380 nm and Z=1 mm.
(§4) Cyclic AMP concentrations in each well were back-calculated from a cAMP standard curve run concurrently during each assay. Each plate contained 16 wells of forskolin stimulated cells and 16 wells of forskolin plus CP55,940-treated. CP55,940-treated cells were treated with CP55,940 (Tocris cat. # 0949) at 1 μm and the maximal response was used as the full range (100%) standard. WIN55,212 (Tocris cat. # 1038) was used as an internal standard. Concentrations of cAMP were expressed as a percent of the difference of these two groups of wells. Concentration-response data including ECso (the concentration of compound producing 50% of the maximal response) and intrinsic activity (the percent maximal activation compared to full activation by CP55,940) were determined using a four-parameter non-linear regression algorithm (Xlfit equation 251, IDBS).

hCB2 = target: T2, hCB2 (Homo sapiens, UniProt P34972); test: cAMP assay (LANCE TR-FRET) in CHO-K1 cells stably expressing hCB2, agonist/inverse agonist; details: intracellular cAMP, CHO-K1 hCB2 cells prestimulated with NKH-477; + agonist, − inverse agonist
T2 construct: host or cells: CHO-K1
T2 sequence (P34972 whole entry): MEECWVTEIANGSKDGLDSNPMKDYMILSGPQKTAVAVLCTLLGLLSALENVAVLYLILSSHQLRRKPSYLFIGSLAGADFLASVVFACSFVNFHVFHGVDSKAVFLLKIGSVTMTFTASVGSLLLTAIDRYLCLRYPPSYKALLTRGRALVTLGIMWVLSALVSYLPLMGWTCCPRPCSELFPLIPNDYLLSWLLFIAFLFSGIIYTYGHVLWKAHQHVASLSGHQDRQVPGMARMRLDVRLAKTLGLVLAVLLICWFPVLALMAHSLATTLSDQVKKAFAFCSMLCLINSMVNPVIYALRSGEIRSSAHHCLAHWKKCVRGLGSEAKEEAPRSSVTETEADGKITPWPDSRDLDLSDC
Method: (§5) The ability of compounds to act as agonists or inverse agonists at human CB2 and CB1 receptors (hCB2, hCB1, respectively) was determined by measuring changes in intracellular cAMP levels. Chinese Hamster Ovary (CHO-K1) cell lines stably expressing hCB2 (Genebank: X74328) or hCB1 (Genebank: X54937) were purchased from Euroscreen (Gosselies, Belgium).
(§6) Cell lines were grown in suspension in EX-CELL 302 CHO Serum-free medium (Sigma, cat #14324C) supplemented with 1% Fetal Bovine Serum, glutamine and non-essential amino-acids under 0.4 mg/mL G418 selection.
as §1, §2, §3, §4

hCB1 = target: T3, hCB1 (Homo sapiens, UniProt P21554); test: cAMP assay (LANCE TR-FRET) in CHO-K1 cells stably expressing hCB1, agonist/inverse agonist; details: intracellular cAMP, CHO-K1 hCB1 cells prestimulated with NKH-477, + agonist, − inverse agonist; for EC50: read-out: hCB1 EC50 class
T3 construct: host or cells: CHO-K1
T3 sequence (P21554 whole entry): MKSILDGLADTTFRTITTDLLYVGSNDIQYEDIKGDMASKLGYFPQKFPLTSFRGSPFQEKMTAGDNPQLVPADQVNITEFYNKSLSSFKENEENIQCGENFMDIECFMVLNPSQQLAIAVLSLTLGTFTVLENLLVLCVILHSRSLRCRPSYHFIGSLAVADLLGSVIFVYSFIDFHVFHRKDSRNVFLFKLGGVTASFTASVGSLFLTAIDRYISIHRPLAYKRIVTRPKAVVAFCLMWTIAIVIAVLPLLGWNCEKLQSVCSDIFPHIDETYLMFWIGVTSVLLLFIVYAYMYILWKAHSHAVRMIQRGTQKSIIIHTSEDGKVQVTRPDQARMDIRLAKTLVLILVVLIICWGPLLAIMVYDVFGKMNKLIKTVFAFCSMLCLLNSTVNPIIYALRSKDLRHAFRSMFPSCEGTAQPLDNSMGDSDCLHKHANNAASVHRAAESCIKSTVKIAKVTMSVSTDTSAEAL
Method: as §5, §6, §1, §2, §3, §4

SMILES | rCB2 EC50 class (rCB2) | hCB2 EC50 class (hCB2) | EC50 (hCB1) [µM] | hCB1 EC50 class (hCB1)
CS(=O)(=O)N1CCc2c(cc(-c3cccc(Cl)c3)c(=O)n2CC2CC2)C1 [Compound 48, 3-(3-chlorophenyl)-1-(cyclopropylmethyl)-6-(methylsulfonyl)-5,6,7,8-tetrahydro-1,6-naphthyridin-2(1H)-one] | +A | +A | > 10 | –
CC(=O)N1CCc2c(cc(-c3ccccc3F)c(=O)n2CC2CCC2)C1 [Compound 54, 6-acetyl-1-(cyclobutylmethyl)-3-(2-fluorophenyl)-5,6,7,8-tetrahydro-1,6-naphthyridin-2(1H)-one] | +A | +B | > 10 | –
CC(=O)N1CCc2c(cc(-c3cccnc3)c(=O)n2CC2CCC2)C1 [Compound 46, 6-acetyl-1-(cyclobutylmethyl)-3-(pyridin-3-yl)-5,6,7,8-tetrahydro-1,6-naphthyridin-2(1H)-one] | +B | +B | > 10 | –
O=c1c(-c2ccc(C(F)(F)F)cc2)cc2c(n1CC1CCCCC1)CCCC2 [Compound 23, 1-(cyclohexylmethyl)-3-(4-(trifluoromethyl)phenyl)-5,6,7,8-tetrahydroquinolin-2(1H)-one] | −B | +B | – | +B
CS(=O)(=O)N1CCc2c(cc(-c3ccc(C(F)(F)F)cc3)c(=O)n2CC2CCC2)C1 [Compound 43, 1-(cyclobutylmethyl)-6-(methylsulfonyl)-3-(4-(trifluoromethyl)phenyl)-5,6,7,8-tetrahydro-1,6-naphthyridin-2(1H)-one] | +B | +A | > 10 | –
COc1cccc(-c2cc3c(n(CC4CCC4)c2=O)CCN(S(C)(=O)=O)C3)c1 [Compound 52, 1-(cyclobutylmethyl)-3-(3-methoxyphenyl)-6-(methylsulfonyl)-5,6,7,8-tetrahydro-1,6-naphthyridin-2(1H)-one] | +A | +B | > 10 | –
COc1cccc(-c2cc3c(n(CC4CCC4)c2=O)CCCC3)c1 [Compound 16, 1-(cyclobutylmethyl)-3-(3-methoxyphenyl)-5,6,7,8-tetrahydroquinolin-2(1H)-one] | +B | +B | > 10 | –
O=c1c(-c2ccccc2F)cc2c(n1CC1CCC1)CCCC2 [Compound 15, 1-(cyclobutylmethyl)-3-(2-fluorophenyl)-5,6,7,8-tetrahydroquinolin-2(1H)-one] | +B | +B | > 10 | –
O=c1c(Cc2ccccc2)cc2c(n1CC1CCC1)CCCC2 [Compound 34, 3-benzyl-1-(cyclobutylmethyl)-5,6,7,8-tetrahydroquinolin-2(1H)-one] | +B | +B | > 10 | –
O=c1c(-c2cccc(Cl)c2)cc2c(n1CC1CCCCC1)CCCC2 [Compound 25, 3-(3-chlorophenyl)-1-(cyclohexylmethyl)-5,6,7,8-tetrahydroquinolm-2(1H)-one] | +A | +B | – | +B
Cc1ccccc1Cc1cc2c(n(CC3CCC3)c1=O)CCCC2 [Compound 30, 1-(cyclobutylmethyl)-3-(2-methylbenzyl)-5,6,7,8-tetrahydroquinolin-2(1H)-one] | +A | +A | > 10 | –
CS(=O)(=O)N1CCc2c(cc(Cc3ccccc3F)c(=O)n2CC2CCC2)C1 [Compound 58, 1-(cyclobutylmethyl)-3-(2-fluorobenzyl)-6-(methylsulfonyl)-5,6,7,8-tetrahydro-1,6-naphthyridin-2(1H)-one] | +A | +A | – | +B
O=c1c(-c2ccccc2)cc2c(n1CC1CC1)CCCC2 [Compound 2, 1-(cyclopropylmethyl)-3-phenyl-5,6,7,8-tetrahydroquinolin-2(1H)-one] | +C | +B | > 10 | –
O=c1c(Cc2ccccc2F)cc2c(n1CC1CCC1)CCCC2 [Compound 31, 1-(cyclobutylmethyl)-3-(2-fluorobenzyl)-5,6,7,8-tetrahydroquinolin-2(1H)-one] | +A | +A | > 10 | –
COc1ncc(-c2cc3c(n(CC4CCC4)c2=O)CCCC3)c(OC)n1 [Compound 29, 1-(cyclobutylmethyl)-3-(2,4-dimethoxypyrimidin-5-yl)-5,6,7,8-tetrahydroquinolin-2(1H)-one] | +A | +B | > 10 | –
O=c1c(-c2ccc(C(F)(F)F)cc2)cc2c(n1CC1CCC1)CCNC2 [Compound 39, 3-(4-(trifluoromethyl)phenyl)-1-(cyclobutylmethyl)-5,6,7,8-tetrahydro-1,6-naphthyridin-2(1H)-one] | +C | +C | > 10 | –
O=c1c(-c2ccccc2)cc2c(n1CC1CCC1)CCCC2 [Compound 1, 1-(cyclobutylmethyl)-3-phenyl-5,6,7,8-tetrahydroquinolin-2(1H)-one] | +A | +B | > 10 | –
CS(=O)(=O)N1CCc2c(cc(-c3ccccc3F)c(=O)n2CC2CCC2)C1 [Compound 53, 1-(cyclobutylmethyl)-3-(2-fluorophenyl)-6-(methylsulfonyl)-5,6,7,8-tetrahydro-1,6-naphthyridin-2(1H)-one] | +A | +A | > 10 | –
O=c1c(Cc2ccc(F)cc2)cc2c(n1CC1CCC1)CCCC2 [Compound 33, 1-(cyclobutylmethyl)-3-(4-fluorobenzyl)-5,6,7,8-tetrahydroquinolin-2(1H)-one] | +B | +B | > 10 | –
O=c1c(-c2cccc(Cl)c2)cc2c(n1CC1CCC1)CCCC2 [Compound 8, 3-(3-chlorophenyl)-1-(cyclobutylmethyl)-5,6,7,8-tetrahydroquinolin-2(1H)-one] | +A | +A | > 10 | –
